PubChem BioAssay (NCI)
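The concentration for 50% growth inhibition is given as GI50. TGI denotes the concentration required for complete inhibition of growth.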

Columns and labels:
Test in all cases: DTP human tumour cell line panel, 384-well format
OVCAR-5 ovarian = tested on: OVCAR-5 ovarian
MDA-MB-435 melanoma = tested on: MDA-MB-435 melanoma
ACHN renal = tested on: ACHN renal
UACC-257 melanoma = tested on: UACC-257 melanoma
MALME-3M melanoma = tested on: MALME-3M melanoma
A498 renal = tested on: A498 renal
BT-549 breast = tested on: BT-549 breast
IGROV1 ovarian = tested on: IGROV1 ovarian
SK-MEL-5 melanoma = tested on: SK-MEL-5 melanoma
SK-MEL-28 melanoma = tested on: SK-MEL-28 melanoma
UACC-62 melanoma = tested on: UACC-62 melanoma
NCI/ADR-RES ovarian = tested on: NCI/ADR-RES ovarian
MOLT-4 leukemia = tested on: MOLT-4 leukemia
NCI-H226 lung = tested on: NCI-H226 lung
CCRF-CEM leukemia = tested on: CCRF-CEM leukemia
RXF 393 renal = tested on: RXF 393 renal
SF-295 CNS = tested on: SF-295 CNS
786-0 renal = tested on: 786-0 renal
HOP-92 NSCLC = tested on: HOP-92 NSCLC
NCI-H23 lung = tested on: NCI-H23 lung
DU-145 prostate = tested on: DU-145 prostate
SW-620 colon = tested on: SW-620 colon
TK-10 renal = tested on: TK-10 renal
RPMI-8226 leukemia = tested on: RPMI-8226 leukemia
MCF7 breast = tested on: MCF7 breast
SNB-75 CNS = tested on: SNB-75 CNS
HCT-116 colon = tested on: HCT-116 colon
NCI-H460 NSCLC = tested on: NCI-H460 NSCLC
SNB-19 CNS = tested on: SNB-19 CNS
OVCAR-3 ovarian = tested on: OVCAR-3 ovarian
HT29 colon = tested on: HT29 colon
CAKI-1 renal = tested on: CAKI-1 renal
SF-539 CNS = tested on: SF-539 CNS
NCI-H322M lung = tested on: NCI-H322M lung
NCI-H522 lung = tested on: NCI-H522 lung
MDA-MB-468 breast = tested on: MDA-MB-468 breast
U251 glioblastoma = tested on: U251 glioblastoma
PC-3 prostate = tested on: PC-3 prostate
SN12C renal = tested on: SN12C renal
HCC-2998 colon = tested on: HCC-2998 colon
LOX IMVI melanoma = tested on: LOX IMVI melanoma
EKVX NSCLC = tested on: EKVX NSCLC
A549 NSCLC = tested on: A549 NSCLC
OVCAR-8 ovarian = tested on: OVCAR-8 ovarian
K-562 leukemia = tested on: K-562 leukemia
T-47D breast = tested on: T-47D breast
M14 melanoma = tested on: M14 melanoma
HL-60(TB) leukemia = tested on: HL-60(TB) leukemia
KM12 colon = tested on: KM12 colon
SK-OV-3 ovarian = tested on: SK-OV-3 ovarian
HOP-62 NSCLC = tested on: HOP-62 NSCLC
HS 578T breast = tested on: HS 578T breast
SF-268 CNS = tested on: SF-268 CNS
UO-31 renal = tested on: UO-31 renal
MDA-MB-231 breast = tested on: MDA-MB-231 breast
OVCAR-4 ovarian = tested on: OVCAR-4 ovarian
HCT-15 colon = tested on: HCT-15 colon

SMILES: O=C(NCCN1CCOCC1)Nc1nc2ccc(Sc3nnc4ccc(-c5ccc(F)cc5)nn34)cc2s1
- GI50 (OVCAR-5 ovarian): > 100 µM
- TGI (OVCAR-5 ovarian): > 100 µM
- GI50 (MDA-MB-435 melanoma): > 100 µM
- TGI (MDA-MB-435 melanoma): > 100 µM
- GI50 (ACHN renal): > 100 µM
- TGI (ACHN renal): > 100 µM
- GI50 (UACC-257 melanoma): 4.3 µM
- TGI (UACC-257 melanoma): > 100 µM
- GI50 (MALME-3M melanoma): 3.77 µM
- TGI (MALME-3M melanoma): 13.3 µM
- GI50 (A498 renal): 6.7 µM
- TGI (A498 renal): > 100 µM
- GI50 (BT-549 breast): 2.85 µM
- TGI (BT-549 breast): > 100 µM
- GI50 (IGROV1 ovarian): > 100 µM
- TGI (IGROV1 ovarian): > 100 µM
- GI50 (SK-MEL-5 melanoma): 3.52 µM
- TGI (SK-MEL-5 melanoma): 47 µM
- GI50 (SK-MEL-28 melanoma): 3 µM
- TGI (SK-MEL-28 melanoma): 7.53 µM
- GI50 (UACC-62 melanoma): 4.58 µM
- TGI (UACC-62 melanoma): 42.3 µM
- GI50 (NCI/ADR-RES ovarian): > 100 µM
- TGI (NCI/ADR-RES ovarian): > 100 µM
- GI50 (MOLT-4 leukemia): 1.74 µM
- TGI (MOLT-4 leukemia): 3.53 µM
- GI50 (NCI-H226 lung): 3.04 µM
- TGI (NCI-H226 lung): > 100 µM
- GI50 (CCRF-CEM leukemia): 4.41 µM
- TGI (CCRF-CEM leukemia): > 100 µM
- GI50 (RXF 393 renal): 0.606 µM
- TGI (RXF 393 renal): 2.18 µM
- GI50 (SF-295 CNS): 2.34 µM
- TGI (SF-295 CNS): 14.3 µM
- GI50 ([…]-0 renal): 1.61 µM
- TGI (786-0 renal): 3.83 µM
- GI50 (HOP-92 NSCLC): 5.22 µM
- TGI (HOP-92 NSCLC): > 100 µM
- GI50 (NCI-H23 lung): 13 µM
- TGI (NCI-H23 lung): > 100 µM
- GI50 (DU-145 prostate): > 100 µM
- TGI (DU-145 prostate): > 100 µM
- GI50 (SW-620 colon): > 100 µM
- TGI (SW-620 colon): > 100 µM
- GI50 (TK-10 renal): > 100 µM
- TGI (TK-10 renal): > 100 µM
- GI50 (RPMI-8226 leukemia): 1.18 µM
- TGI (RPMI-8226 leukemia): 2.58 µM
- GI50 (MCF7 breast): 5.39 µM
- TGI (MCF7 breast): > 100 µM
- GI50 (SNB-75 CNS): 3.2 µM
- TGI (SNB-75 CNS): > 100 µM
- GI50 (HCT-116 colon): 77 µM
- TGI (HCT-116 colon): > 100 µM
- GI50 (NCI-H460 NSCLC): 5 µM
- TGI (NCI-H460 NSCLC): > 100 µM
- GI50 (SNB-19 CNS): 5.14 µM
- TGI (SNB-19 CNS): > 100 µM
- GI50 (OVCAR-3 ovarian): > 100 µM
- TGI (OVCAR-3 ovarian): > 100 µM
- GI50 (HT29 colon): 4.93 µM
- TGI (HT29 colon): 53.3 µM
- GI50 (CAKI-1 renal): 22.6 µM
- TGI (CAKI-1 renal): > 100 µM
- GI50 (SF-539 CNS): 4.86 µM
- TGI (SF-539 CNS): > 100 µM
- GI50 (NCI-H322M lung): 42.9 µM
- TGI (NCI-H322M lung): > 100 µM
- GI50 (NCI-H522 lung): 17.7 µM
- TGI (NCI-H522 lung): > 100 µM
- GI50 (MDA-MB-468 breast): 2.93 µM
- TGI (MDA-MB-468 breast): 8.45 µM
- GI50 (U251 glioblastoma): 7.1 µM
- TGI (U251 glioblastoma): 60.7 µM
- GI50 (PC-3 prostate): > 100 µM
- TGI (PC-3 prostate): > 100 µM
- GI50 (SN12C renal): > 100 µM
- TGI (SN12C renal): > 100 µM
- GI50 (HCC-2998 colon): 5.29 µM
- TGI (HCC-2998 colon): 34.7 µM
- GI50 (LOX IMVI melanoma): 20.7 µM
- TGI (LOX IMVI melanoma): > 100 µM
- GI50 (EKVX NSCLC): 84 µM
- TGI (EKVX NSCLC): > 100 µM
- GI50 (A549 NSCLC): > 100 µM
- TGI (A549 NSCLC): > 100 µM
- GI50 (OVCAR-8 ovarian): > 100 µM
- TGI (OVCAR-8 ovarian): > 100 µM
- GI50 (K-562 leukemia): 3.98 µM
- TGI (K-562 leukemia): 21.2 µM
- GI50 (T-47D breast): 3.1 µM
- TGI (T-47D breast): 32.5 µM
- GI50 (M14 melanoma): > 100 µM
- TGI (M14 melanoma): > 100 µM
- GI50 (HL-60(TB) leukemia): 4.25 µM
- TGI (HL-60(TB) leukemia): 8.46 µM
- GI50 (KM12 colon): 0.452 µM
- TGI (KM12 colon): > 100 µM
- GI50 (SK-OV-3 ovarian): > 100 µM
- TGI (SK-OV-3 ovarian): > 100 µM
- GI50 (HOP-62 NSCLC): 7.49 µM
- TGI (HOP-62 NSCLC): > 100 µM
- GI50 (HS 578T breast): 2.31 µM
- TGI (HS 578T breast): 5.35 µM
- GI50 (SF-268 CNS): 2.71 µM
- TGI (SF-268 CNS): 7 µM
- GI50 (UO-31 renal): > 100 µM
- TGI (UO-31 renal): > 100 µM
- GI50 (MDA-MB-231 breast): 3.73 µM
- TGI (MDA-MB-231 breast): > 100 µM
- GI50 (OVCAR-4 ovarian): > 100 µM
- TGI (OVCAR-4 ovarian): > 100 µM
- GI50 (HCT-15 colon): 70.6 µM
- TGI (HCT-15 colon): > 100 µM
